Data on one molecule can be found in patent publication US20140187538A1, “LORCASERIN HYDROCHLORIDE” (DR. REDDY'S LABORATORIES LTD., priority 2012, published 2014).

This data set can be described thus: physical stability of the amorphous solid form (tendency to crystallize over time). The class given is physicochemical. The conditions noted are these: solid state; amorphous drug substance alone vs amorphous solid dispersion; crystallization over a period of time.

As for `C[C@H]1CNCCc2ccc(Cl)cc21.Cl` [amorphous lorcaserin hydrochloride], the physical stability entry is reported as “limited physical stability”.
